This data set can be described thus: in vitro. The conditions noted are these: human, hela cells, % viability.

On to `CC(=O)Nc1ccc(-c2cc(Nc3ccc(NC(=O)c4ccc(N)cc4)cc3)ncn2)cc1` [CBK091103], for which the viability at 28.5 h, 10 µM was determined as 97%.

Consider `Nc1cc(=O)[nH]c(SCC(=O)N2CCCc3ccccc32)n1` [CBK304576], for which the viability at 28.5 h, 10 µM was 94.1%.

`O=C(CSc1nnc2ccc(-c3ccccc3)nn12)N1CCCCC1` [CBK287678]: the viability at 28.5 h, 10 µM was 100%.

`Cc1cn(CC(=O)N2CCN(C(=O)c3ccco3)CC2)c(=O)[nH]c1=O` [CBK144472]: the viability at 28.5 h, 10 µM was 87.7%.

Turning to `N[C@H](CCc1nc2ccccc2[nH]1)C(=O)O` [CBK172614], the viability at 28.5 h, 10 µM is 98.2%.

For `CC(=O)Oc1ccccc1C(=O)Oc1ccc2c(c1)c(C(C)=O)c(C)n2-c1ccccc1` [CBK263175], the viability at 28.5 h, 10 µM was found to be 89.2%.

For `O=C(O)C(Cc1c[nH]cn1)N1C(=O)C2CC=C(Cl)CC2C1=O` (stereo not drawn) [CBK286871], the viability at 28.5 h, 10 µM amounted to 92.4%.

For the compound `O=C(CSc1cnn[nH]1)Nc1ccc(F)cc1` [CBK270024], the viability at 28.5 h, 10 µM amounted to 89.6%.

On to `Cc1[nH]c2ccc(CNC(=O)NC3CCCc4cn[nH]c43)cc2c1C` (stereo not drawn) [CBK305488], for which the viability at 28.5 h, 10 µM was 89.8%.

With `O=C(c1cc(-c2ccccc2)n[nH]c1=O)N1CCc2ccccc2C1` [CBK291216], the viability at 28.5 h, 10 µM came out at 91.2%.

As for `O=C1CCc2cc(S(=O)(=O)NC(c3ccccc3)c3ccccc3)ccc2N1` [CBK286367], the viability at 28.5 h, 10 µM is 93.4%.

As to `COc1ccc(S(=O)(=O)N2CCN(C(=O)c3cc(-c4ccncc4)nc4c(C)c(Cl)ccc34)CC2)cc1` [CBK267739], the viability at 28.5 h, 10 µM amounted to 92.6%.

Regarding `C=CCN(Cc1nc(-c2ccccc2)no1)C(=O)Nc1ccc(C)cc1` [CBK269859], the viability at 28.5 h, 10 µM was 103%.

In the case of `COc1cccc(N2C(=O)/C(=C/c3ccc(O)c(O)c3)SC2=S)c1` [CBK263096], the viability at 28.5 h, 10 µM was found to be 94.7%.

Turning to `Cc1cc(NS(=O)(=O)c2cc(OCC(N)=O)c(C)cc2Cl)no1` [CBK266456], the viability at 28.5 h, 10 µM is 103%.

Turning to `CC1=C(C)CC(C(=O)Nc2sc3c(c2C(=O)OC(C)C)CCCC3)C(C(=O)O)C1` (stereo not drawn) [CBK265428], the viability at 28.5 h, 10 µM came out at 87%.

Turning to `O=C(O)C1Cc2c([nH]c3ccccc23)C(c2cc(Br)ccc2O)N1` (stereo not drawn) [CBK260946], the viability at 28.5 h, 10 µM is 88.1%.

For the compound `O=C(CSc1ncnc2ccccc12)N(Cc1ccccc1F)C1CC1` [CBK295610], the viability at 28.5 h, 10 µM was 92.1%.

Consider `CC(NC(=S)Nc1ccc(S(N)(=O)=O)cc1)c1ccncc1` (stereo not drawn) [CBK267073], for which the viability at 28.5 h, 10 µM came to 111%.

As to `COCCNc1nccnc1-c1ccsc1` [CBK038008], the viability at 28.5 h, 10 µM was determined as 95.4%.

In the case of `COc1cc([N+](=O)[O-])ccc1-c1ccc(/C=c2\sc3nc4cc(Br)cnc4n3c2=O)o1` [CBK262579], the viability at 28.5 h, 10 µM is 103%.

With `CC(C)(c1ccccc1)c1ccc(OCc2ccc(S(=O)(=O)N3CCOCC3)cc2)cc1` [CBK267407], the viability at 28.5 h, 10 µM was 96.8%.

On to `CNc1nc(NCCc2cnc(=O)n(C)c2O)cc(C2CCOC2)n1` (stereo not drawn) [CBK307156], for which the viability at 28.5 h, 10 µM stood at 105%.

As for `Cc1nn2c(O)c(CCO)c(C(=O)O)nc2c1-c1ccc(Cl)cc1` [CBK286699], the viability at 28.5 h, 10 µM stood at 108%.

Turning to `CCCCNc1cc(N2CCOC(Cn3cc(C)cn3)C2)nc(N)n1` (stereo not drawn) [CBK305417], the viability at 28.5 h, 10 µM was 53.3%.

In the case of `CCNC(=O)C1CCN(C(=O)c2coc(COc3cccc(F)c3)n2)C1` (stereo not drawn) [CBK307466], the viability at 28.5 h, 10 µM turned out to be 86.3%.

For the compound `O=C(O)CC1C(=O)NCCN1CCCc1ccccc1` (stereo not drawn) [CBK287176], the viability at 28.5 h, 10 µM is 90.2%.

In the case of `CCOc1cc(OCC)cc(C(=O)N2CCCC3(CC(=O)c4ccc(C)cc4O3)C2)c1` (stereo not drawn) [CBK168067], the viability at 28.5 h, 10 µM was 93.9%.

`Cc1ccc(S(=O)(=O)Nn2cnnc2)cc1` [CBK027263]: the viability at 28.5 h, 10 µM was found to be 108%.

As to `CCc1nn(CC(=O)NC2CCC2)c(=O)c2cc3sc(C)cc3n12` [CBK284142], the viability at 28.5 h, 10 µM stood at 92.4%.

For `CC1CCCN(Cc2c(C3CCNCC3)[nH]c3ncccc23)C1` (stereo not drawn) [CBK285078], the viability at 28.5 h, 10 µM came to 78.5%.

Regarding `Cc1ccc(C(C)C)c(OCCSc2nc3c(N)ncnc3[nH]2)c1` [CBK266941], the viability at 28.5 h, 10 µM was 94.3%.

In the case of `O=C(CSc1nc2ccccc2s1)OCC(=O)c1cccc([N+](=O)[O-])c1` [CBK262361], the viability at 28.5 h, 10 µM was 111%.

Consider `Nc1ncnc(NCCc2c[nH]c3ccccc23)c1[N+](=O)[O-]` [CBK267283], for which the viability at 28.5 h, 10 µM came out at 29.6%.

As for `Fc1ccccc1CN(CCCn1ccnc1)Cc1ccncc1` [CBK282981], the viability at 28.5 h, 10 µM came out at 102%.

Take `COc1c(C(=O)Nc2ccc(CN3CCOCC3)cc2)cc2ccccc2c1Br` [CBK268593]: the viability at 28.5 h, 10 µM was 103%.

`CCOC(=O)c1cnc(SCc2nc(N)nc(Nc3ccc(F)cc3)n2)nc1N` [CBK098477]: the viability at 28.5 h, 10 µM stood at 82.3%.

On to `NC(=O)C1(Cc2ccc(-c3ccccc3)cc2)CCN(C(=O)CCc2ccccc2)CC1` [CBK285772], for which the viability at 28.5 h, 10 µM came to 102%.

As to `CCc1nc2c(OCCOc3ccc(F)cc3)cccn2c1N(C)C(=O)c1ccncc1` [CBK147472], the viability at 28.5 h, 10 µM was determined as 93.6%.

As to `CN(C)C(C(=O)NCC1(C)COC1)c1ccc(Cl)cc1` (stereo not drawn) [CBK281753], the viability at 28.5 h, 10 µM amounted to 102%.

In the case of `FC(F)(F)c1ccc(OCCN2CCNCC2)nc1` [CBK113462], the viability at 28.5 h, 10 µM is 110%.

Regarding `Cc1ccc(-c2noc(C(C)NC(=O)C3(Cn4ccnc4)CC3)n2)cc1` (stereo not drawn) [CBK307661], the viability at 28.5 h, 10 µM turned out to be 113%.

As for `CC(=O)N1CCCc2cc(C(O)CN(C)Cc3ccccc3)ccc21` (stereo not drawn) [CBK282149], the viability at 28.5 h, 10 µM was found to be 88.5%.

Take `COC(=O)c1scc(NS(=O)(=O)c2ccc(Cl)cc2Cl)c1C(=O)OC` [CBK026681]: the viability at 28.5 h, 10 µM amounted to 89.4%.

Regarding `Brc1ccc(-c2nc(CSc3nnnn3C3CCCCC3)no2)cc1` [CBK026913], the viability at 28.5 h, 10 µM turned out to be 110%.

As for `CC(=O)c1c(C)[n+]([O-])c2cc(Cl)c(Cl)cc2[n+]1[O-]` [CBK265017], the viability at 28.5 h, 10 µM worked out at 108%.

Turning to `O=C(O)Cc1ccc(NC(=O)c2cccnc2C(=O)O)cc1` [CBK267397], the viability at 28.5 h, 10 µM was 97.2%.

Turning to `O=C(O)CSc1nc2ccccc2n2cnnc12` [CBK269831], the viability at 28.5 h, 10 µM came out at 92.8%.

For the compound `Cc1cc(C)nc(-n2[nH]c(N)cc2=O)n1` [CBK270164], the viability at 28.5 h, 10 µM was 85.7%.

With `Fc1ccccc1Nc1nc(-c2ccncc2)cs1` [CBK267216], the viability at 28.5 h, 10 µM came out at 103%.

For the compound `O=C(NCc1ccc2c(c1)OCO2)c1cnc(-c2ccc(Cl)cc2)c(-c2ccco2)c1` [CBK037547], the viability at 28.5 h, 10 µM amounted to 98.3%.

With `O=C(CCN1CCN(CCO)CC1)Nc1ccc(F)c(F)c1` [CBK264316], the viability at 28.5 h, 10 µM came out at 100%.

`CN(C)S(=O)(=O)n1cc(/C=C/c2nc(N)nc(-c3ccccc3O)n2)c2ccccc21` [CBK268386]: the viability at 28.5 h, 10 µM turned out to be 119%.

In the case of `COc1ccc(C2=NN(C(=O)CCC(=O)O)C(c3cccs3)C2)cc1OC` (stereo not drawn) [CBK266656], the viability at 28.5 h, 10 µM turned out to be 118%.

With `COC(=O)c1sccc1NS(=O)(=O)c1ccc2ccccc2c1` [CBK004500], the viability at 28.5 h, 10 µM was determined as 103%.

On to `COc1ccc(CCNC(=S)n2cc(C)cn2)cc1OC` [CBK267001], for which the viability at 28.5 h, 10 µM is 89%.

Consider `COc1ncc(-c2cnc(N)c(-c3ccc(C=O)cc3)n2)c(OC)n1` [CBK064110], for which the viability at 28.5 h, 10 µM worked out at 94.1%.

Source of the values: article PMC12040169 (PLOS Biology, 2025).
